Columns and labels:
Assay in all cases: SILAC LC-MS ABPP
Assay type in all cases: cell-based
Conditions in all cases: 25 μM 2 h, live DM93 cells
P25205 = target: T1, P25205 (Homo sapiens, UniProt P25205)
T1 construct: Probe-modified proteins from the soluble fraction were conjugated to a desthiobiotin-azide tag; endogenous in cells; host or cells: DM93 (SILAC)
T1 sequence (P25205 1-808): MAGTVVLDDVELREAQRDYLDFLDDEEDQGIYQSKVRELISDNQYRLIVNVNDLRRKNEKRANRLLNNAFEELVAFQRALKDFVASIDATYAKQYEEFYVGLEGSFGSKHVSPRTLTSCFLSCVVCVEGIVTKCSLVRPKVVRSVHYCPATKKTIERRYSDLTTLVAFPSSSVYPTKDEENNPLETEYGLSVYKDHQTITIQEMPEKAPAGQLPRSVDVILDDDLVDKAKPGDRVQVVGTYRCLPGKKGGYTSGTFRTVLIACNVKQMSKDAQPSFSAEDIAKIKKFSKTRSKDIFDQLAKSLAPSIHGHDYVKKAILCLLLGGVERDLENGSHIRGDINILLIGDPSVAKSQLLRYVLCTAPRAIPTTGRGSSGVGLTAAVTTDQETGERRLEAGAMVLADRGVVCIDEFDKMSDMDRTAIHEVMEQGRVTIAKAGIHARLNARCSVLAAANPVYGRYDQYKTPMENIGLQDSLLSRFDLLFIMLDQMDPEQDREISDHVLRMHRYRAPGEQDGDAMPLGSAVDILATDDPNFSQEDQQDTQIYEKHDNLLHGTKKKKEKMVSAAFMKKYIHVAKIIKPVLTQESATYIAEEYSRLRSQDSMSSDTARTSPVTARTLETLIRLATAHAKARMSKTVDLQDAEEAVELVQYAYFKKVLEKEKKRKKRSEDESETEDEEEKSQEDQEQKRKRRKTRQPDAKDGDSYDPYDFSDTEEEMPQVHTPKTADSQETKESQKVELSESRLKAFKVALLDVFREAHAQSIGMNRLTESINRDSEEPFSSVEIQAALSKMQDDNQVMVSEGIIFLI
Procedure: (§1) Cells were grown to 90-95% confluence before being washed once with warm, sterile DPBS (1×, 5 mL), followed by addition of 10 mL of serum-free media (supplemented with 1% L-glutamine) containing either DMSO or SuTEx fragment (in DMSO) was added. Light cells were treated with DMSO vehicle while the heavy cells were treated with DMSO or SuTEx fragment (in DMSO) and incubated for 2 hrs. After 2 hrs, the cells were treated with SuTEx alkyne probe (HHS475, 10 μL of 1000× DMSO stock) and incubated for an additional 2 hrs. The media was aspirated and cells washed with cold PBS (5 mL) and harvested. Cells were spun at 500×g for 5 min at 4° C. followed by removal of supernatant. Pellets were resuspended in 1 mL of cold DPBS and spun at 1,400×g for 3 min at 4° C. followed by removal of supernatant. The cells were lysed in PBS by sonication and fractionated (100,000×g, 45 min, 4° C.).The light and heavy soluble fractions were diluted to 2.3 mg/mL in PBS and 432 μL were used for analysis (1 mg total protein). The probe-modified proteomes were conjugated to desthiobiotin-PEG3-azide (10 μl of 10 mM stock in DMSO; 200 μM final concentration) using TCEP (10 μl of fresh 50 mM stock in water, 1 mM final concentration), TBTA ligand (33 μl of a 1.7 mM 4:1 t-butanol/DMSO stock, 100 μM final concentration) and CuSO4 (10 μl of 50 mM stock, 1 mM final concentration). Samples were vortexed to mix and incubated for 1 hr at room temperature. The heavy and light proteomes were mixed 1:1 and the subsequent steps, including LC-MS/MS data analysis, were performed as previously described^[8a].
(§2) Coupling cell-based screens with chemical proteomics can facilitate the identification of target protein and binding sites that engage and are irreversibly modified by covalent ligands^[12]. In these assays, covalent ligands block SuTEx activity-based probe (ABP) labeling at protein sites, and the competition of probe labeling can be used to quantify potency and selectivity across the proteome^[10a]. To facilitate quantitative chemical proteomics, DM93 melanoma cells were cultured using stable isotopic labeling by amino acids in cell culture (SILAC)^[13]. Cells cultured in “light” media were treated with dimethyl sulfoxide (DMSO) vehicle while cells cultured in “heavy” media were treated with SuTEx ligand (25 μM, 2 hours, 37° C.). Next, cells were treated with HHS-475 probe (100 μM, 2 hours, 37° C.) followed by lysis and processing of proteomes for analysis. Probe-modified proteins from the soluble fraction were conjugated to a desthiobiotin-azide tag by copper-catalyzed azide-alkyne cycloaddition (CuAAC)^[14] followed by mixing of the light and heavy proteomes. The combined proteomes were digested with trypsin protease to produce probe-modified peptides, followed by enrichment and purification by avidin affinity chromatography. Probe-modified peptides were resolved, identified, and quantified by high-resolution liquid chromatography-tandem mass spectrometry (LC-MS/MS). Resultant data were analyzed as previously described^[8a, 10a]. Table 2, below, lists sites of modification targeted by sulfonyl-triazole compounds HHS-0101, HHS-0201, HHS-0301, HHS-0401, and HHS-0701. The format of the table is as follows: protein Uniprot accession number (see uniprot.org); tyrosine site (amino acid position) modified; treatment (sulfonyl-triazole compound identification number, followed by Y (where if multiple compounds modify the same site, the compounds are separated by vertical lines).

O75150 = target: T2, O75150 (Homo sapiens, UniProt O75150)
T2 construct: endogenous in cells; host or cells: DM93
Procedure: as §1, §2

P11216 = target: T3, P11216 (Homo sapiens, UniProt P11216)
T3 construct: endogenous in cells; host or cells: DM93 cells (SILAC)
Procedure: as §1, §2

Q96AT1 = target: T4, Q96AT1 (Homo sapiens, UniProt Q96AT1)
T4 construct: endogenous in cells; host or cells: DM93 cells (SILAC), treated live; soluble proteome analysed
Procedure: as §1, §2

Q04637 = target: T5, Q04637 (Homo sapiens, UniProt Q04637)
T5 construct: performing SuTEx compound screening directly in cells; endogenous in cells; host or cells: DM93 cells (SILAC)
Procedure: as §1, §2

T5 sequence (Q04637 whole entry): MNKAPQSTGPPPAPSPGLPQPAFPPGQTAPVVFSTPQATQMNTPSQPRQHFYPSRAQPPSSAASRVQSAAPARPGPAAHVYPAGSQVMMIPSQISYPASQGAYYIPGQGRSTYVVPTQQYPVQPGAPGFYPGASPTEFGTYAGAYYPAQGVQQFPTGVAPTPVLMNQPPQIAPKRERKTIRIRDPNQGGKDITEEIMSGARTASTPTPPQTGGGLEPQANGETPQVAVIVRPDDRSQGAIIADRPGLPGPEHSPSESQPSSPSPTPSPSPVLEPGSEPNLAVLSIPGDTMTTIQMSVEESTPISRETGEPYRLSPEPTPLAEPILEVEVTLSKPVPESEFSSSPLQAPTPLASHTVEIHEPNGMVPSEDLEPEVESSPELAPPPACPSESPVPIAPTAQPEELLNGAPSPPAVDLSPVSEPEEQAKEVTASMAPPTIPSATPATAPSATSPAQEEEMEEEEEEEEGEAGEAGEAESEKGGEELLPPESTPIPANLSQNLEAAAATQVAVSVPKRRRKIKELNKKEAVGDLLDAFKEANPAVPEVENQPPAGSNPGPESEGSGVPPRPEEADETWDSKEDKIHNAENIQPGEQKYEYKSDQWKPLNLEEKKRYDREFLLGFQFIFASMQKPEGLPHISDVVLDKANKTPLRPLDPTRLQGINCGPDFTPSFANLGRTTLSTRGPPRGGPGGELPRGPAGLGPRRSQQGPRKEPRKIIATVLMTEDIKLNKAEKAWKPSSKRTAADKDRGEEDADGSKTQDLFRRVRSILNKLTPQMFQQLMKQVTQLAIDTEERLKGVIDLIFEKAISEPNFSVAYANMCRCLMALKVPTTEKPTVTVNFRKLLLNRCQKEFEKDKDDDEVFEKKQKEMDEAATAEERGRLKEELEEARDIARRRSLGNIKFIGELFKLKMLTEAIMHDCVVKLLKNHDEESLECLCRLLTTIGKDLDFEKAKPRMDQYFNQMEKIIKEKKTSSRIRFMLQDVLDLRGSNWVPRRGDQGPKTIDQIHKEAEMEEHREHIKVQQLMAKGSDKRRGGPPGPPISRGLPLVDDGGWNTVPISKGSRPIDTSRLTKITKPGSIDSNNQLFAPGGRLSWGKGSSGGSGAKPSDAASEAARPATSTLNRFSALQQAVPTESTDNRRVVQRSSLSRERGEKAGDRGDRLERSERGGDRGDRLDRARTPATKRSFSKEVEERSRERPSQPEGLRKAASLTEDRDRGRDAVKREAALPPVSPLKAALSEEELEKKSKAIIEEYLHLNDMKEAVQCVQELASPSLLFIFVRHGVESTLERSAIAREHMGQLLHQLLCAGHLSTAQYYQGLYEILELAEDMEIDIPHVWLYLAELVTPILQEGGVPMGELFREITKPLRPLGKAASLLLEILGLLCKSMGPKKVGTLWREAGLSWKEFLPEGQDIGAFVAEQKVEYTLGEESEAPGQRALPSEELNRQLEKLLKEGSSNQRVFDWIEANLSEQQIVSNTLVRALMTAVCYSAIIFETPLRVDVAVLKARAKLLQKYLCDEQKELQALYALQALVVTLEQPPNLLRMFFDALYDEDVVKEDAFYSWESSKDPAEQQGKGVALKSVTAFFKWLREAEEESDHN
T2 sequence (O75150 whole entry): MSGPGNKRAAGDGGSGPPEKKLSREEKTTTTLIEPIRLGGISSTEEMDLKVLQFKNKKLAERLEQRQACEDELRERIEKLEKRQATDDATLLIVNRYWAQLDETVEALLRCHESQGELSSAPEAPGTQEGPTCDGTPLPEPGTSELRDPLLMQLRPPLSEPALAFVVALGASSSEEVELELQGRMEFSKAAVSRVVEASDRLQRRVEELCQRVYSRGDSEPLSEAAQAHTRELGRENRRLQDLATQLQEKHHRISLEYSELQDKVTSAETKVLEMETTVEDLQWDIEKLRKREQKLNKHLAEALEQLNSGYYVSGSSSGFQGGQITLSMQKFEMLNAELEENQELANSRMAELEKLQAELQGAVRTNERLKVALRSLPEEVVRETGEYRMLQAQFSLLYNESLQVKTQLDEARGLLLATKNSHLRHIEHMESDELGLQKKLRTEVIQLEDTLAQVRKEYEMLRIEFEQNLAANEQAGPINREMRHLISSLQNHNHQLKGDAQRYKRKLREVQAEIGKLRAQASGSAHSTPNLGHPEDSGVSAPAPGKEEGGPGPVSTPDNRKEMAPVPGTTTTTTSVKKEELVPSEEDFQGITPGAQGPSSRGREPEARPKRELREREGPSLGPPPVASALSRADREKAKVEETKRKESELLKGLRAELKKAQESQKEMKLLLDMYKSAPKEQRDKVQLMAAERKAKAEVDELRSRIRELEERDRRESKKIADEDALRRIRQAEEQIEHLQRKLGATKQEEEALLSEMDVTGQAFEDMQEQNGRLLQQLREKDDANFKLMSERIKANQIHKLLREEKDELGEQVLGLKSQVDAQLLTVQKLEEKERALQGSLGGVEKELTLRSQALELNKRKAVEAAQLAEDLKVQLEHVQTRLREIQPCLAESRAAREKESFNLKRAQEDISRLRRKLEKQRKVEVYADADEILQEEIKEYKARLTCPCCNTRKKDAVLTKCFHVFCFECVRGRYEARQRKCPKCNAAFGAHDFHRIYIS
T3 sequence (P11216 whole entry): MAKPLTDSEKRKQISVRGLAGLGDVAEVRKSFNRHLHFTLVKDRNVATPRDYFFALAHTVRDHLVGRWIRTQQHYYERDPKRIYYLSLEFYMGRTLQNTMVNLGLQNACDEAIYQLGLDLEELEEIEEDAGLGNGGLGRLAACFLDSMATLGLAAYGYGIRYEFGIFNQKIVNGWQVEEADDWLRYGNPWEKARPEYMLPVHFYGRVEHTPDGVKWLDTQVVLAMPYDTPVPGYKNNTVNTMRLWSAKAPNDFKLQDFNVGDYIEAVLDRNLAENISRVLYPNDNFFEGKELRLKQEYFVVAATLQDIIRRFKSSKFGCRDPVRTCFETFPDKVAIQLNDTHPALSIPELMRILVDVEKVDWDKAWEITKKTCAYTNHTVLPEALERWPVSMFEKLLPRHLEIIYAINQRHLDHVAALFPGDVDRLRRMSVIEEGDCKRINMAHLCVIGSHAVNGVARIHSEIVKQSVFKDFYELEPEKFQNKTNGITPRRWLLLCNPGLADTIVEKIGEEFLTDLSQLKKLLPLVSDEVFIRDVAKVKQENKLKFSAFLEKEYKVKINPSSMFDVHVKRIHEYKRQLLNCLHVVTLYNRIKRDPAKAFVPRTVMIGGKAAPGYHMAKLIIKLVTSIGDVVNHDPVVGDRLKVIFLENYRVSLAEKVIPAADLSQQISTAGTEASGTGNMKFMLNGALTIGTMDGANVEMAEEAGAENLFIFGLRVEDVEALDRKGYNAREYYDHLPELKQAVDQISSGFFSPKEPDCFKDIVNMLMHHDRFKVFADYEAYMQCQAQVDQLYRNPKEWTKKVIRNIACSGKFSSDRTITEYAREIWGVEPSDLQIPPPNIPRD
T4 sequence (Q96AT1 whole entry): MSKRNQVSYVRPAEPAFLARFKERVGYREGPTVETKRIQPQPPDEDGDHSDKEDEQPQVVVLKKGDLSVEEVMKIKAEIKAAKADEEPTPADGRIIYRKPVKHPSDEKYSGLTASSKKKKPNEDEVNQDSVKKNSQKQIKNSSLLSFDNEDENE

For O=C(c1ccc(S(=O)(=O)n2cncn2)cc1)N1CCC(c2ccccc2)CC1 [HHS-0701, (4-((1H-1,2,4-triazol-1-yl)sulfonyl)phenyl)(4-phenylpiperidin-1-yl)methanone], which “liganded tyrosine site 159” value (P25205) is on record?
Its value is “HHS0701.Y (tyrosine sites that showed >80% reductions (SR >5) in probe labeling in cells treated with compounds (liganded sites))”.

What about the “liganded tyrosine site 188” value (P25205) of the same compound?
Its value is “HHS0701.Y (tyrosine sites that showed >80% reductions (SR >5) in probe labeling in cells treated with compounds (liganded sites))”.

What does the source list for O=C(NC1CC1)c1ccc(S(=O)(=O)n2cncn2)cc1 [HHS-0101, 4-((1H-1,2,4-triazol-1-yl)sulfonyl)-N-cyclopropylbenzamide]?
liganded tyrosine site 928 (O75150): HHS0101.Y (tyrosine sites that showed >80% reductions (SR >5) in probe labeling in cells treated with compounds (liganded sites)); liganded tyrosine site 473 (P11216): HHS0101.Y (tyrosine sites that showed >80% reductions (SR >5) in probe labeling in cells treated with compounds (liganded sites)); liganded tyrosine site 9 (Q96AT1): HHS0101.Y (tyrosine sites that showed >80% reductions (SR >5) in probe labeling in cells treated with compounds (liganded sites))

With O=C(NC1CCCCC1)c1ccc(S(=O)(=O)n2cncn2)cc1 [HHS-0301, 4-((1H-1,2,4-triazol-1-yl)sulfonyl)-N-cyclohexylbenzamide] as the compound, how does the “liganded tyrosine site 258” value (O75150) read?
The value was “HHS0301.Y (tyrosine sites that showed >80% reductions (SR >5) in probe labeling in cells treated with compounds (liganded sites))”.

And the “liganded tyrosine site 147” value (P25205)?
The value was “HHS0301.Y (tyrosine sites that showed >80% reductions (SR >5) in probe labeling in cells treated with compounds (liganded sites))”.

What about the “liganded tyrosine site 81” value (Q04637) of the same compound?
The value was “HHS0301.Y (tyrosine sites that showed >80% reductions (SR >5) in probe labeling in cells treated with compounds (liganded sites))”.

What about the “liganded tyrosine site 104” value (Q04637) of the same compound?
Its value is “HHS0301.Y|HHS0701.Y (tyrosine sites that showed >80% reductions (SR >5) in probe labeling in cells treated with compounds (liganded sites))”.

With O=C(NCc1ccccc1)c1ccc(S(=O)(=O)n2cncn2)cc1 [HHS-0401, 4-((1H-1,2,4-triazol-1-yl)sulfonyl)-N-benzylbenzamide] as the compound, how does the “liganded tyrosine site 109” value (Q96AT1) read?
Its value is “HHS0401.Y (tyrosine sites that showed >80% reductions (SR >5) in probe labeling in cells treated with compounds (liganded sites))”.

With O=C(NCC1CC1)c1ccc(S(=O)(=O)n2cncn2)cc1 [HHS-0201, 4-((1H-1,2,4-triazol-1-yl)sulfonyl)-N-(cyclopropylmethyl)benzamide] as the compound, how does the “liganded tyrosine site 204” value (P11216) read?
The value was “HHS0201.Y (tyrosine sites that showed >80% reductions (SR >5) in probe labeling in cells treated with compounds (liganded sites))”.

And the “liganded tyrosine site 103” value (Q04637)?
The value was “HHS0201.Y|HHS0301.Y|HHS0401.Y|HHS0701.Y (tyrosine sites that showed >80% reductions (SR >5) in probe labeling in cells treated with compounds (liganded sites))”.

Reference: patent US20240210412A1, “SULFONYL-TRIAZOLE COMPOUNDS USEFUL AS LIGANDS AND INHIBITORS OF PROSTAGLANDIN REDUCTASE 2” (University of Virginia Patent Foundation, priority 2021, published 2024)
